ChEMBL document CHEMBL2384963, “Diterpenoids from the twigs and leaves of Fokienia hodginsii” (J Nat Prod, 2013)

Experiments:
Assay type in all cases: functional, cell-based
[1] = tested on: MCF7; assay: Cytotoxicity against human MCF7 cells after 48 hrs by MTT assay; settings: MCF7, 48 h
[2] = tested on: A549; assay: Cytotoxicity against human A549 cells after 48 hrs by MTT assay; settings: A549, 48 h
[3] = tested on: SMMC-7721; assay: Cytotoxicity against human SMMC7721 cells after 48 hrs by MTT assay; settings: SMMC-7721, 48 h
[4] = tested on: HL-60; assay: Cytotoxicity against human HL60 cells after 48 hrs by MTT assay; settings: HL-60, 48 h
[5] = tested on: SW480; assay: Cytotoxicity against human SW480 cells after 48 hrs by MTT assay; settings: SW480, 48 h

SMILES | IC50 [1] | IC50 [2] | IC50 [3] | IC50 [4] | IC50 [5]
C=C[C@]1(C)O[C@H]1C[C@H]1C(=C)CC[C@@H]2[C@]1(C)CCC[C@]2(C)C(=O)O | > 40 µM | > 40 µM | > 40 µM | > 40 µM | > 40 µM
C=CC(=C)[C@H](O)C[C@H]1C(=C)CC[C@@H]2[C@]1(C)CCC[C@]2(C)C(=O)O | > 40 µM | > 40 µM | > 40 µM | > 40 µM | > 40 µM
C=C[C@@]1(C)C=C[C@H]2C(=C1)[C@H](O)C[C@H]1[C@](C)(CO)CCC[C@]21C | > 40 µM | > 40 µM | > 40 µM | > 40 µM | > 40 µM
C=C/C(C)=C/C[C@H]1C(=C)CC[C@@H]2[C@]1(C)CCC[C@]2(C)C=O | > 40 µM | > 40 µM | > 40 µM | > 40 µM | > 40 µM
C=C[C@]1(C)C=C2CC[C@H]3[C@](C)(COC(C)=O)CCC[C@]3(C)[C@H]2[C@H](O)C1 | > 40 µM | > 40 µM | > 40 µM | > 40 µM | > 40 µM
C=C1CC[C@@H]2[C@](C)(CCC[C@]2(C)C(=O)O)[C@H]1C/C=C(\C)C=O | > 40 µM | > 40 µM | > 40 µM | > 40 µM | > 40 µM
C=C[C@]1(C)C=C2CC[C@H]3[C@](C)(CO)[C@@H](O)CC[C@]3(C)[C@H]2CC1 [SANDARACOPIMARADIENEDIOL] | > 40 µM | > 40 µM | > 40 µM | > 40 µM | > 40 µM
C=CC(=C)[C@@H](O)C[C@H]1C(=C)CC[C@@H]2[C@]1(C)CCC[C@]2(C)C(=O)O | > 40 µM | > 40 µM | > 40 µM | > 40 µM | > 40 µM
C=CC(=C)CC[C@@H]1[C@@]2(C)CCC[C@](C)(COC(=O)/C=C\c3ccc(O)cc3)[C@@H]2CC[C@@]1(C)O | 15.1 µM | 17.1 µM | 16.2 µM | 14.1 µM | 13.6 µM
CC(C)c1cc2c(cc1O)[C@@]1(C)CCCC(C)(C)[C@@H]1CC2 [FERRUGINOL] | > 40 µM | > 40 µM | > 40 µM | > 40 µM | > 40 µM
C=C[C@@](C)(O)CC[C@H]1C(=C)CC[C@@H]2[C@]1(C)CCC[C@]2(C)C(=O)O | > 40 µM | > 40 µM | > 40 µM | > 40 µM | > 40 µM
CC(C)C1=C[C@]2(O)CC[C@H]3C(C)(C)CCC[C@]3(O)CC2=CC1=O | > 40 µM | > 40 µM | > 40 µM | > 40 µM | > 40 µM
C=CC(=C)CC[C@@H]1[C@@]2(C)CCC[C@](C)(COC(=O)/C=C\c3ccc(O)c(OC)c3)[C@@H]2CC[C@@]1(C)O | 15.4 µM | 17.3 µM | 7.5 µM | 9.1 µM | 17.6 µM
C=C[C@]1(C)C=C2CC[C@H]3C(C)(C)CCC[C@]3(C)[C@H]2[C@H](O)C1 | > 40 µM | > 40 µM | > 40 µM | > 40 µM | > 40 µM
CC(C)c1cc2c(cc1O)[C@@]1(CO)CCCC(C)(C)[C@@H]1CC2 [PISIFEROL] | > 40 µM | > 40 µM | > 40 µM | > 40 µM | > 40 µM
C=C1CC[C@@H]2[C@](C)(CCC[C@]2(C)C(=O)O)[C@H]1CC/C(C)=C/CO [ISOCUPRESSIC ACID] | > 40 µM | > 40 µM | > 40 µM | > 40 µM | > 40 µM
C=C[C@]1(C)C=C2CC[C@H]3C(C)(C)[C@@H](O)CC[C@]3(C)[C@H]2[C@H](O)C1 | > 40 µM | > 40 µM | > 40 µM | > 40 µM | > 40 µM
C=C1CC[C@@H]2[C@](C)(CCC[C@@]2(C)C(=O)O)[C@H]1CC/C(C)=C/COC(C)=O | > 40 µM | > 40 µM | > 40 µM | > 40 µM | > 40 µM
C=C[C@@]1(C)O[C@H]1C[C@H]1C(=C)CC[C@@H]2[C@]1(C)CCC[C@]2(C)C(=O)O | > 40 µM | > 40 µM | > 40 µM | > 40 µM | > 40 µM
C=C[C@]1(C)C=C2CC[C@H]3C(C)(C)[C@@H](O)CC[C@]3(C)[C@H]2[C@H](OC(C)=O)C1 | > 40 µM | > 40 µM | > 40 µM | > 40 µM | > 40 µM
C=CC(=C)CC[C@@H]1[C@@]2(C)CCC[C@](C)(COC(=O)/C=C/c3ccc(O)c(OC)c3)[C@@H]2CC[C@@]1(C)O | 13.5 µM | 16.8 µM | 14.1 µM | 14.3 µM | 16.9 µM
C=C[C@]1(C)C=C2CC[C@H]3[C@](C)(CO)CCC[C@]3(C)[C@H]2[C@H](O)C1 | > 40 µM | > 40 µM | > 40 µM | > 40 µM | > 40 µM
C=CC(=C)CC[C@@H]1[C@@]2(C)CCC[C@](C)(COC(=O)/C=C/c3ccc(O)cc3)[C@@H]2CC[C@@]1(C)O | 16.6 µM | 20.4 µM | 15.5 µM | 11.8 µM | 19.3 µM
C=C/C(C)=C/C[C@H]1C(=C)CC[C@@H]2[C@]1(C)CCC[C@]2(C)C(=O)O | > 40 µM | > 40 µM | > 40 µM | > 40 µM | > 40 µM
CC(C)c1cc2c(cc1O)[C@@]1(CO)CCCC(C)(C)[C@H]1CC2 | 15 µM | 20.7 µM | 15.2 µM | 15.5 µM | 15.1 µM
C=C1CC[C@@H]2[C@](C)(CCC[C@]2(C)C(=O)O)[C@H]1CCC1=CCOC1=O [PINUSOLIDIC ACID] | > 40 µM | > 40 µM | > 40 µM | > 40 µM | > 40 µM
C=C[C@]1(C)C=C2CC[C@@H]3[C@](C)(CCC[C@@]3(C)C(=O)O)[C@H]2CC1 [SANDARACOPIMARIC ACID] | > 40 µM | > 40 µM | > 40 µM | > 40 µM | > 40 µM
CC(C)c1cc2c(cc1O)[C@@]1(C=O)CCCC(C)(C)[C@@H]1CC2 [PISIFERAL] | 15.6 µM | 21 µM | 19.7 µM | 14.3 µM | 14.4 µM
